Values of other authors in publication PMC6595297 (British Journal of Clinical Pharmacology, 2019).

System: human P‐gp transport function
Conditions: cited from earlier work

Structure (SMILES) | Inhibition of P‐gp (classification)
OC(Cn1cncn1)(Cn1cncn1)c1ccc(F)cc1F [fluconazole] | devoid of P‐gp inhibitory effect
CCC(C)n1ncn(-c2ccc(N3CCN(c4ccc(OCC5COC(Cn6cncn6)(c6ccc(Cl)cc6Cl)O5)cc4)CC3)cc2)c1=O (centres unmarked) [itraconazole] | strong dual inhibitor of CYP3A and P‐gp
